Results taken from US7649002B2, “(3,5-dimethylpiperidin-1yl)(4-phenylpyrrolidin-3-yl)methanone derivatives as MCR4 agonists” (Pfizer Inc, priority 2004, dated 2010).

Molecular target: T1, human MCR1 receptor (Homo sapiens, UniProt Q01726)
T1 construct: expressed in transfected cells
Assay: MCR1 standard functional assay (Protocol A): cAMP AlphaScreen in HEK cells
Assay type: cell-based
Settings: for EC50: Protocol A
Description: Stimulation of adenylate cyclase following receptor activation is a widely used measure of functional activity for a number of receptor systems. The functional assay to measure cyclic AMP (cAMP) utilises human embryonic kidney (HEK) cells that stably express the human melanocortin MCR1, MCR3 or MCR4 receptor. Activation of MCR1, MCR3 or MCR4 receptors stimulates adenylate cyclase, generating cAMP, which is measured using AlphaScreen™ (PerkinElmer assay kits.
The AlphaScreen™ cAMP assay kit consists of ‘donor beads’, ‘acceptor beads’, and biotinylated cAMP which links the different beads together. Excitation of this linked complex at […] in the Fusion™-α microplate analyser results in light emission between […].
(i) MCR1. MCR3 and MCR4 Standard Functional Assay Methodology [Assay Protocol A, B AND C Respectively]
Determination of activity against the human MCR1, MCR3 and MCR4 receptor subtypes was carried out for compounds according to the present invention using three immortalised human embryonic kidney (HEK) cell lines that had been biologically engineered to express the human melanocortin MCR1, MCR3 or MCR4 receptor subtypes. These cell lines were engineered using protocols akin to those outlined by Gouarderes et al (Gouarderes, C., (2002) Neuroscience, 115(2); 349-361).
Such-compound-induced activation of these MCR1, MCR3 or MCR4 receptors lead to the stimulation of the cellular enzyme adenylate cyclase, which in turn lead to the cellular generation, and intra-cellular accumulation, of cyclic adenosine monophosphate (cAMP). […] Intracellular levels of cAMP were quantified using the commercially available AlphaScreen™ assay kits from PerkinElmer. A detailed assay protocol and an explanation of the concept underlying this kit is available through the PerkinElmer website (www.perkinelmer.com). The protocol listed below provides a summary this information.
The quantity of intracellular cAMP produced by compound-induced activation of the MCR1, MCR3 and MCR4 receptors in these three cell lines was measured using a Fusion™-α microplate analyser set to stimulate at a wavelength of 680 nm and to measure the energy emitted at wave lengths between […]. Compound-induced increases in MCR1, MCR3 or MCR4 receptor activation were subsequently quantified as a decrease in the quantity of light emitted at wavelengths between […]. Data analysis was subsequently performed using a curve-fitting program and the apparent potency of the test compound (expressed as an EC50 and defined as the effective compound concentration that elicited 50% of the maximum compound-induced response) extrapolated from the fitted curve.
Stimulation buffer (as per AlphaScreen™ protocol): HBSS supplemented with 0.5 mM IBMX, 5 mM HEPES, 0.1% (w/v) BSA and 10 mM MgCl2.
Lysis buffer (as per AlphaScreen™ protocol): 5 mM HEPES solution supplemented with 0.1% (w/v) BSA and 0.3% (v/v) Tween-20.
Detection mix (as per AlphaScreen™ protocol): Lysis buffer supplemented with the biotinylated cAMP (10 nM) and Donor beads (10 μg/ml) as supplied in the AlphaScreenT cAMP assay kit.
For the MCR1, MCR3 and MCR4 standard functional assay methodologies compounds were initially dissolved in DMSO to give a compound concentration of 4 mM and then further diluted for the assay in stimulation buffer to give actual concentrations 2-fold greater than that desired as the final assay concentration.
The three HEK cell lines, as detailed hereinbefore, expressing the human MCR1, MCR3 or MCR4 receptor subtypes were grown in T225 vent cap flasks containing 50 ml of growth medium (DMEM supplemented with 10% (v/v) FCS, 2 mM L-Glutamine, 25 mM HEPES and 1.0 mg/ml Geneticin) and maintained in a cell incubator at a temperature of 37° C. and in an environment containing 5% CO2. Cells were harvested when they reached 80-90% confluency by first removing the existing growth medium and then washing with PBS that had been pre-warmed to a temperature of 37° C. […]

T1 sequence (Q01726 whole entry): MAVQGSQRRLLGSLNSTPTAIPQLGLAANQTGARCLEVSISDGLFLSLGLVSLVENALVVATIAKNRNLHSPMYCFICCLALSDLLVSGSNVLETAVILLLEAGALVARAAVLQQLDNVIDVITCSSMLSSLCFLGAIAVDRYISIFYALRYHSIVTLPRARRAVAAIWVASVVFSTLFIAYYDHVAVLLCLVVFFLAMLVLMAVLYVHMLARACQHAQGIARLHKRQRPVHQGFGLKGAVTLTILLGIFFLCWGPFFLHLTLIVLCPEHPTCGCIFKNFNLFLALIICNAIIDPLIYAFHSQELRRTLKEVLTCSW

SMILES | Selectivity MCR1/MCR4 (Table 5, MCR4 by Protocol C) | EC50 (Table 5) [µM] | Selectivity MCR1/MCR4 (Table 6, MCR4 by Protocol E) | EC50 (Table 6) [µM]
C[C@@H]1CN(C(=O)[C@@H]2CN(C(C)(C)C)C[C@H]2c2ccc(F)cc2F)C[C@H](C)[C@@]1(O)c1ccccc1 [Example 1, (3R,4R,5S)-1-{[(3S,4R)-1-tert-Butyl-4-(24-difluorophenyl)pyrrolidin-3-yl]carbonyl}-3,5-dimethyl-4-phenylpiperidin-4-ol] | 324 | 8.1 | 125 | –
C[C@@H]1CN(C(=O)[C@@H]2CN(C(C)(C)C)C[C@H]2c2ccc(F)cc2F)C[C@H](C)[C@@]1(O)c1ccccc1.Cl [Example 5, (3R,4R,5S)-1-{[(3S,4R)-1-tert-Butyl-4-(2,4-difluorophenyl)pyrrolidin-3-yl]carbonyl}-3,5-dimethyl-4-phenylpiperidin-4-ol hydrochloride] | – | – | 125 | 1.2
CC(C)N1C[C@@H](C(=O)N2C[C@@H](C)[C@](O)(c3ccccc3)[C@@H](C)C2)[C@H](c2ccc(F)cc2F)C1.Cl [Example 6, (3R,4R,5S)-1-{[(3S,4R)-4-(2,4-Difluorophenyl)-1-isopropylpyrrolidin-3-yl]carbonyl}-3,5-dimethyl-4-phenylpiperidin-4-ol hydrochloride] | – | – | 28 | 0.541
C[C@@H]1CN(C(=O)[C@@H]2CNC[C@H]2c2ccc(F)cc2F)C[C@H](C)[C@@]1(O)c1ccc(F)cc1.Cl [Example 12, (3R,4R,5S)-1-{[(3S,4R)-4-(2,4-difluorophenyl)pyrrolidin-3-yl]carbonyl}-4-(4-fluorophenyl)-3,5-dimethylpiperidin-4-ol hydrochloride] | – | – | 9 | 0.667
C[C@@H]1CN(C(=O)[C@@H]2CN(C(C)(C)C)C[C@H]2c2ccc(F)cc2F)C[C@H](C)[C@@]1(O)c1ccc(Cl)cc1.Cl [Example 13, (3R,4R,5S)-1-{[(3S,4R)-1-tert-butyl-4-(2,4-difluorophenyl)pyrrolidin-3-yl]carbonyl}-4-(4-chlorophenyl)-3,5-dimethylpiperidin-4-ol hydrochloride] | – | – | 311 | 8.4
C[C@@H]1CN(C(=O)[C@@H]2CN(c3ccccn3)C[C@H]2c2ccc(F)cc2F)C[C@H](C)[C@@]1(O)c1ccccc1.Cl [Example 31, (3R,4R,5S)-1-{[(3S,4R)-4-(2,4-difluorophenyl)-1-pyridin-2-ylpyrrolidin-3-yl]carbonyl}-3,5-dimethyl-4-phenylpiperidin-4-ol hydrochloride] | – | – | 2969 | 10.7
C[C@@H]1CN(C(=O)[C@@H]2CN(c3cccnn3)C[C@H]2c2ccc(F)cc2F)C[C@H](C)[C@@]1(O)c1ccccc1.Cl [Example 35, (3R,4R,5S)-1-{[(3S,4R)-4-(2,4-difluorophenyl)-1-pyridazin-3-ylpyrrolidin-3-yl]carbonyl}-3,5-dimethyl-4-phenylpiperidin-4-ol hydrochloride] | – | – | 847 | 1.27
